Laboratory results from DBAASP.
Converted amounts (≈) assume the structure as drawn. One block for each compound: values may come before it.

Tests used:
Experiment in all cases: ≥ marks a high value that may be exact or a test limit, other limits are often not marked, values filed in µg/mL are converted to µM
[1] = test system: Staphylococcus epidermidis ATCC 12228
[2] = test system: Escherichia coli ATCC 2592
[3] = test system: Micrococcus luteus ATCC 9341
[4] = test system: Shigella flexneri ATCC 203
[5] = test system: Pseudomonas aeruginosa ATCC 9027
[6] = test system: Candida albicans ATCC 36232
[7] = test system: Bacillus subtilis ATCC 6633
[8] = test system: Staphylococcus aureus ATCC 6538
[9] = test system: Staphylococcus aureus
[10] = test system: Corynebacterium diphtheriae ATCC 8024
[11] = test system: Bacillus subtilis IFO 3336
[12] = test system: Escherichia coli IFO 3301
[13] = test system: Trypanosoma brucei brucei GUT Tat3.1
[14] = test system: Pseudomonas aeruginosa
[15] = test system: Trichophyton mentagrophytes IFO 5466
[16] = test system: Staphylococcus aureus KO-4
[17] = test system: Salmonella typhimurium KCTC 1926
[18] = test system: Pseudomonas aeruginosa CCARM 2095
[19] = test system: Pseudomonas aeruginosa CCARM 2109
[20] = test system: Staphylococcus aureus KCTC 1621
[21] = test system: Bacillus subtilis KCTC 3068
[22] = test system: Staphylococcus aureus CCARM 3543
[23] = test system: Staphylococcus epidermidis KCTC 1917
[24] = test system: Staphylococcus aureus CCARM 3001
[25] = test system: Candida albicans KCTC 7965
[26] = test system: Escherichia coli KCTC 1682
[27] = test system: Pseudomonas aeruginosa KCTC 1637

MIC [1]: > 84.9 µM | MIC [2]: ≥ 84.9 µM | MIC [3]: ≥ 84.9 µM | MIC [4]: ≥ 84.9 µM | MIC [5]: > 84.9 µM | MIC [6]: ≥ 84.9 µM | MIC [7]: ≥ 84.9 µM | MIC [8]: > 84.9 µM | MIC [9]: > 84.9 µM | MIC [10]: ≥ 84.9 µM
Structure (SMILES): CC(C)C[C@H](NC(=O)[C@@H]1CSSC[C@H](NC(=O)[C@H](C)NC(=O)[C@H](C)NC(=O)[C@@H](N)CC(=O)O)C(=O)N[C@@H](C)C(=O)N[C@@H](C)C(=O)N[C@@H](Cc2cnc[nH]2)C(=O)N1)C(=O)N[C@@H](Cc1ccccc1)C(=O)N[C@@H](CCCN=C(N)N)C(N)=O [DAACAAHCLFR]

MIC [11]: ≥ 111 µM | MIC [12]: ≥ 111 µM
Structure (SMILES): NC(N)=NCCC[C@H](NC(=O)[C@H](Cc1cnc[nH]1)NC(=O)[C@H](CCCN=C(N)N)NC(=O)[C@H](Cc1cnc[nH]1)NC(=O)[C@@H](N)CCCN=C(N)N)C(=O)N[C@@H](Cc1cnc[nH]1)C(=O)O [RHRHRH]

MIC [13]: ≥ 325 µM | MIC [14]: 347 µM (≈ 400 µg/mL) | MIC [15]: 13 µM (≈ 15 µg/mL) | MIC [16]: ≥ 521 µM
Structure (SMILES): CC[C@H](C)[C@H](NC(=O)[C@H](CCCN=C(N)N)NC(=O)[C@H](CC(C)C)NC(=O)[C@H](CC(C)C)NC(=O)[C@H](CC(C)C)NC(=O)[C@@H](N)CCCN=C(N)N)C(=O)NCC(=O)N[C@@H](CCCN=C(N)N)C(=O)N[C@@H](CCCN=C(N)N)C(N)=O [RLLLRIGRR]

MIC [17]: 2 µM (≈ 3.48 µg/mL) | MIC [18]: 16 µM (≈ 27.8 µg/mL) | MIC [19]: 16 µM (≈ 27.8 µg/mL) | MIC [20]: 4 µM (≈ 6.96 µg/mL) | MIC [21]: 4 µM (≈ 6.96 µg/mL) | MIC [22]: 2 µM (≈ 3.48 µg/mL) | MIC [23]: 2 µM (≈ 3.48 µg/mL) | MIC [24]: 8 µM (≈ 13.9 µg/mL) | MIC [25]: ≥ 64 µM | MIC [26]: 8 µM (≈ 13.9 µg/mL) | MIC [27]: 8 µM (≈ 13.9 µg/mL)
Structure (SMILES): CC(C)C[C@H](NC(=O)[C@H](Cc1c[nH]c2ccccc12)NC(=O)[C@H](CCCNC(=N)N)NC(=O)[C@H](CCCNC(=N)N)NC(=O)[C@H](Cc1c[nH]c2ccccc12)NC(=O)[C@H](CCCNC(=N)N)NC(=O)[C@H](CCCNC(=N)N)NC(=O)[C@H](Cc1c[nH]c2ccccc12)NC(=O)[C@H](CC(C)C)NC(=O)[C@@H](N)CCCNC(=N)N)C(=O)N[C@@H](CCCNC(=N)N)C(=O)O [RLWRRWRRWLR]
